Test results reported in ChEMBL document CHEMBL1146163 (Bioorg Med Chem Lett, 2006).
Activity calls are given as the source filed them. The rule behind the calls is not given here.

Assays:
Rattus norvegicus [1] = assay: Reduction of glucose level in ZDF rat at 1 mg/kg, po after 7 days relative to control; type: functional; parameters: scale not given: the % may be the effect or the level left
Mus musculus = assay: Reduction of glucose level in db/db mouse at 30 mg/kg, po after 7 days relative to control; type: functional; parameters: scale not given: the % may be the effect or the level left
[2] = Half life in F344 rat at 1 mg/kg, iv; type: ADME, organism-based; parameters: dose 1 mg/kg, route intravenous; details: in vivo
[3] = Volume of distribution in F344 rat at 1 mg/kg, iv; type: ADME, organism-based; parameters: dose 1 mg/kg, route intravenous; details: in vivo, read-out: Vdss
Rattus norvegicus [4] = assay: Effect on glucose normalization in po dosed ZDF rat after 7 days; type: functional; details: 168 h, read-out: MED
[5] = Volume of distribution in Beagle dog at 1 mg/kg, iv; type: ADME, organism-based, Canis lupus familiaris; parameters: dose 1 mg/kg, route intravenous; details: in vivo, read-out: Vdss
[6] = Clearance in Beagle dog at 1 mg/kg, iv; type: ADME, organism-based, Canis lupus familiaris; parameters: dose 1 mg/kg, route intravenous; details: in vivo
Rattus norvegicus [7] = assay: Reduction of plasma triglyceride level in ZDF rat at 1 mg/kg, po after 7 days relative to control; type: functional; details: 168 h
[8] = Tmax in Beagle dog at 10 mg/kg, po; type: ADME, organism-based, Canis lupus familiaris; parameters: dose 10 mg/kg, route oral; details: in vivo
[9] = Oral bioavailability in F344 rat at 10 mg/kg, po; type: ADME, organism-based; details: in vivo
[10] = Clearance in F344 rat at 1 mg/kg, iv; type: ADME, organism-based; parameters: dose 1 mg/kg, route intravenous; details: in vivo
[11] = Half life in Beagle dog at 1 mg/kg, iv; type: ADME, organism-based, Canis lupus familiaris; parameters: dose 1 mg/kg, route intravenous; details: in vivo
[12] = Oral bioavailability in Beagle dog at 10 mg/kg, po; type: ADME, organism-based, Canis lupus familiaris; details: in vivo
[13] = Tmax in F344 rat at 10 mg/kg, po; type: ADME, organism-based; parameters: dose 10 mg/kg, route oral; details: in vivo
[14] = target: T1, Peroxisome proliferator-activated receptor alpha (Homo sapiens) (UniProt Q07869); assay: Activity at human PPARalpha expressed in CV1 cells using GAL4 chimeric system relative to control; type: cell-based; details: CV-1
T1 sequence (whole entry): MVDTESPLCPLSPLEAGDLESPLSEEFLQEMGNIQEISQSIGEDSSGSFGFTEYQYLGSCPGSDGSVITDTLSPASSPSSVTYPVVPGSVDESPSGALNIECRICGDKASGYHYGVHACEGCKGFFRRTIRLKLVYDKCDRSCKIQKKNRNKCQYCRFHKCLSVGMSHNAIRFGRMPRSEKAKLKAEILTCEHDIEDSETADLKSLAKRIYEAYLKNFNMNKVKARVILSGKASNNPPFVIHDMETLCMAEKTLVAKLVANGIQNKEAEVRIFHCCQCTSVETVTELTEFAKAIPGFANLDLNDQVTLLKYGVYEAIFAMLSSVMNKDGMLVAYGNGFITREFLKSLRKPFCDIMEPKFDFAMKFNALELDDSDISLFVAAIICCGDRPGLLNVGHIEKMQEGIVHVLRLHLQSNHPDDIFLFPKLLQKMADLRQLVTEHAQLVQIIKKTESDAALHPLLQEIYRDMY

[15] = target: T2, Peroxisome proliferator-activated receptor alpha (Homo sapiens, UniProt Q07869); assay: (§1) Displacement of tritium labeled ligand from human PPARalpha by SPA assay
T2 sequence (Q07869 whole entry): T1 sequence (whole entry)

[16] = target: T3, Peroxisome proliferator-activated receptor delta (Homo sapiens, UniProt Q03181); assay: Activity at PPARdelta
T3 sequence (Q03181 whole entry): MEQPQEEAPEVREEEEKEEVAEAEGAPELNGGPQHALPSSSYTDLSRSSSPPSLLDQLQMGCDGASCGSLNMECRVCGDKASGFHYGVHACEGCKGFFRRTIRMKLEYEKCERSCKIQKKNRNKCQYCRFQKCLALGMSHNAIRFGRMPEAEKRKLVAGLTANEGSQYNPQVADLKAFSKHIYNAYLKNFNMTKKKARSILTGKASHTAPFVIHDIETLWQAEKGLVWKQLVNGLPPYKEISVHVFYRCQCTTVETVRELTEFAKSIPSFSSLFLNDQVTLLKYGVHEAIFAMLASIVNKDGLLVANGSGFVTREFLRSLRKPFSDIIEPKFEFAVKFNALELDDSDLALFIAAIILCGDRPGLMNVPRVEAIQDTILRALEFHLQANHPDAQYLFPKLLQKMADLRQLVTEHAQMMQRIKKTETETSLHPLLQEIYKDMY

[17] = target: T4, Peroxisome proliferator-activated receptor delta (Homo sapiens) (UniProt Q03181); assay: Activity at human PPARdelta expressed in CV1 cells by cotransfection assay relative to control; type: cell-based; details: CV-1
T4 sequence (whole entry): T3 sequence (Q03181 whole entry)

[18] = target: T5, Peroxisome proliferator-activated receptor gamma (Homo sapiens, UniProt P37231)
T5 sequence (P37231 whole entry): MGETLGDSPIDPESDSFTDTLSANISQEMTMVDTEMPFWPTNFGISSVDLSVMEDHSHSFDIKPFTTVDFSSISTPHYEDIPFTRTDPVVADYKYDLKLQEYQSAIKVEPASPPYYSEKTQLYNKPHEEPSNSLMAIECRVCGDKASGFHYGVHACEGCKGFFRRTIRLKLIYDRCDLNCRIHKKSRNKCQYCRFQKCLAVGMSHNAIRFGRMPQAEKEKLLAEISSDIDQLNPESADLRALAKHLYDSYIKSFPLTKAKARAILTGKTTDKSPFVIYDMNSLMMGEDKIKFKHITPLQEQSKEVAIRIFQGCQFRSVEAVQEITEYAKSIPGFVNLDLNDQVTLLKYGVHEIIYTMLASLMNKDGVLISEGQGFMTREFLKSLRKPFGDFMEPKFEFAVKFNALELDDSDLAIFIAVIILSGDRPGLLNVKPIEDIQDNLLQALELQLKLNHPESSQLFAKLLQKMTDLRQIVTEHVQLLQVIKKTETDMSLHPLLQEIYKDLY
Description: Displacement of tritium labeled ligand from human PPARgamma by SPA assay

[19] = target: T1, Peroxisome proliferator-activated receptor alpha (Homo sapiens); assay: as §1

Cc1oc(-c2ccc(-c3ccccc3)cc2)nc1CCOc1ccc(CCC(=O)[O-])c2c1CCN(C(=O)OCC(C)(C)C)C2.[Na+]
Activity (Rattus norvegicus [1]): 23% | Activity (Mus musculus): 49%

CCCOC(=O)N1CCc2c(OCCc3nc(-c4ccc(-c5ccccc5)cc4)oc3C)ccc(CCC(=O)[O-])c2C1.[Na+]
half-life [2]: 5 h | Vd [3]: 0.59 L/kg | minimal effective dose (Rattus norvegicus [4]): 0.19 mg/kg | Vd [5]: 0.38 L/kg | clearance [6]: 0.0744 L/h/kg | ED50 (Rattus norvegicus [7]): 0.24 mg/kg | Tmax [8]: 4 h | bioavailability [9]: 35% | clearance [10]: 0.0822 L/h/kg | half-life [11]: 3.58 h | Activity (Mus musculus): 41% | bioavailability [12]: 37% | Tmax [13]: 1 h

CC(C)(Oc1ccc(C(=O)c2ccc(Cl)cc2)cc1)C(=O)O [FENOFIBRIC ACID]
Efficacy [14]: 75% | EC50 [15]: > 10 µM | IC50 [15]: > 10 µM

C#CCOC(=O)N1CCc2c(OCCc3nc(-c4ccccc4)oc3C)ccc(CCC(=O)O)c2C1
Efficacy [14]: 38% | EC50 [16]: 3.02 µM | EC50 [15]: 2.78 µM | IC50 [15]: 8.4 µM | Efficacy [17]: 65% | Activity (Mus musculus): 37% | EC50 [18]: 0.077 µM | IC50 [18]: 0.024 µM

Cc1oc(-c2ccc(-c3ccccc3)cc2)nc1CCOc1ccc(CCC(=O)O)c(CNC(=O)OC(C)C)c1
Efficacy [14]: 52%

CCCOC(=O)N1CCc2c(OCCc3nc(-c4ccccc4)oc3C)ccc(CCC(=O)O)c2C1 [listing 1 of 2 here]
Efficacy [14]: 47%

Cc1oc(-c2ccccc2)nc1CCOc1ccc(CCC(=O)O)c2c1CCN(C(=O)OCC(C)C)C2
Efficacy [14]: 40% | minimal effective dose (Rattus norvegicus [4]): 0.25 mg/kg | EC50 [15]: 1.72 µM | IC50 [15]: 3.42 µM | Activity (Mus musculus): 27% | EC50 [18]: 0.008 µM | IC50 [18]: 0.017 µM

Cc1oc(-c2ccc(-c3ccccc3)cc2)nc1CCOc1ccc(CCC(=O)O)c2c1CCN(C(=O)OCC(C)(C)C)C2 [listing 1 of 2 here]
EC50 [18]: 0.009 µM | IC50 [18]: 0.033 µM

CCCOC(=O)N1CCc2c(OCCc3nc(-c4ccc(-c5ccccc5)cc4)oc3C)ccc(CCC(=O)O)c2C1 [listing 1 of 2 here]
Efficacy [14]: 27% | Activity [19]: inactive | Efficacy [17]: 36%

Cc1oc(-c2ccc(-c3ccccc3)cc2)nc1CCOc1ccc(CCC(=O)O)c2c1CCN(C(=O)OCC(C)(C)C)C2 [listing 2 of 2 here]
Efficacy [14]: 18% | Activity [19]: inactive | Efficacy [19]: < 20%

CCCOC(=O)N1CCc2c(OCCc3nc(-c4ccccc4)oc3C)ccc(CCC(=O)[O-])c2C1.[Na+]
minimal effective dose (Rattus norvegicus [4]): 0.28 mg/kg

Cc1oc(-c2ccccc2)nc1CCOc1ccc(C[C@H](Nc2ccccc2C(=O)c2ccccc2)C(=O)O)cc1
Efficacy [14]: 66%

Cc1c(C)c2c(c(C)c1O)CCC(C)(COc1ccc(CC3SC(=O)NC3=O)cc1)O2 (stereo not drawn)
Efficacy [14]: 0% | Activity [19]: inactive

CCCOC(=O)N1CCc2c(OCCc3nc(-c4ccccc4)oc3C)ccc(CCC(=O)O)c2C1 [listing 2 of 2 here]
EC50 [15]: 0.561 µM | IC50 [15]: 4.68 µM | Activity (Mus musculus): 62% | EC50 [18]: 0.012 µM | IC50 [18]: 0.011 µM

CCCOC(=O)N1CCc2c(OCCc3nc(-c4ccc(-c5ccccc5)cc4)oc3C)ccc(CCC(=O)O)c2C1 [listing 2 of 2 here]
EC50 [16]: 2.75 µM | EC50 [15]: 2.39 µM | EC50 [18]: 0.003 µM | IC50 [18]: 0.021 µM

CN(CCOc1ccc(CC2SC(=O)NC2=O)cc1)c1ccccn1 (stereo not drawn) [ROSIGLITAZONE]
minimal effective dose (Rattus norvegicus [4]): 0.25 mg/kg | Activity (Mus musculus): 29%
